In paper PMC9640990 (Frontiers in Pharmacology, 2022):
Read-outs that look alike come from different tables or passages of the source.

Key:
hOCT2 = target: T1, hOCT2 (Homo sapiens, UniProt O15244); test: Inhibition of hOCT2-mediated uptake of 14C-TEA in hOCT2-S2 cells; assay type: cell-based; settings: 14C-TEA 5 µM
T1 construct: host or cells: S2
T1 sequence (O15244 1-555): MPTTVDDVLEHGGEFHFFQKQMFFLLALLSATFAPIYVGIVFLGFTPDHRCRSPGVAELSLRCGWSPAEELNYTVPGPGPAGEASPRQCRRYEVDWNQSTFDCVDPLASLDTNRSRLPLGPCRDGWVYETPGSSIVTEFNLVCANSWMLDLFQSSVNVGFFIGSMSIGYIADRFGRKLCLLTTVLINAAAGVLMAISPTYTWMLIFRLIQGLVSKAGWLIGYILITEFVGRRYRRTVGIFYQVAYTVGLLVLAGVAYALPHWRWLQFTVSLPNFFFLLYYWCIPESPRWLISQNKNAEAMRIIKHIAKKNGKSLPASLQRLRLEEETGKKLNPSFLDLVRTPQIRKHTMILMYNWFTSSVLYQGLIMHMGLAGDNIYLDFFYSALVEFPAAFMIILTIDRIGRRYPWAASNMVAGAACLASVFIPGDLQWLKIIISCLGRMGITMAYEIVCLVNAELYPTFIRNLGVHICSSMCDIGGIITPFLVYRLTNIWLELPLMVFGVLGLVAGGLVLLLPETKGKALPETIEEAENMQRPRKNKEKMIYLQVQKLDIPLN
Description: Considering the relative exposure characteristics, GA and PCA were selected as PK-marker and Q-marker components of PCE in previous studies ([Ma et al., 2015]; [Ma et al., 2016]; [Li et al., 2021b]). In this study, we investigated the concentration-dependent inhibitions of GA and PCA on multiple transporters, including OAT1, OAT3, OCT2, MDR1, and BCRP. Stably expressing cell lines of hOAT1-MDCK, hOAT3-MDCK, hOCT2-S2, hMDR1-MDCK, hBCRP-MDCK, and their mock cells were obtained from Japan Fuji Biomedical Co., Ltd. The cells were maintained in DMEM (Sigma) supplemented with 10% FCS, 1% non-essential amino acids (Sigma), and 2% L-glutamine. The medium for the Transwell® plates (Corning Costar, Cambridge, MA, United States) was supplemented with 0.1% gentamicin. […]
Briefly, the hOAT1-MDCK, hOAT3-MDCK, and hOCT2-S2 cells were trypsinized and suspended in the culture medium to provide a density of 1.5 × 10^5 cells/ml. […] The radioactive intensity of ^14C-PAH, ^3H-ES, and ^14C-TEA was measured using a Tri-Carb 2910TR scintillator (PerkinElmer, United States). Fluorescence was measured at 485 nm (excitation) and 546 nm (emission) for rhodamine 123, and 425 nm (excitation) and 528 nm (emission) for lucifer yellow. IC50 values were determined by employing GraphPad Prism 9.

Caco-2 cells = test: Bidirectional transport of ciprofloxacin in Caco-2 cells; assay type: in vitro ADME; settings: GA 50 μM, PCA 50 μM, PCE 100 mg/ml, p < 0.05
Description: The Caco-2 cell lines were obtained from the National Collection of Authenticated Cell Cultures (NCACC, Shanghai, China). The bi-directional transport assay was performed on 12-mm Transwell Permeable Supports with 0.4 mm-pore polycarbonate membrane insert and 1.12 cm^2 growth areas. […] The cells were seeded at a density of 3×10^5 cells/well, incubated at 37°C and 5% CO2, and cultured for 21 days with replacement of cell culture medium supplemented with 1% penicillin-streptomycin every second day. Membrane filters were placed in a 12 mm well with 1.5 and 0.5 ml of culture medium in the basolateral and apical compartments, respectively. TEER was measured as an indication of an intact monolayer using a Millicell ERS voltohmmeter (Millipore, Merck). […] Aliquots of 50 μl were collected from the acceptor compartment at 0.5 h. The apparent permeability coefficient (P app) was calculated using the following formula: P app = (dC/dt) × V r/(A × C 0), where dC/dt is the alteration in concentration over time, V r is the volume of the receiver compartment, A is the area of the cell monolayer, and C 0 is the initial concentration in the donor compartment. The permeation of drug from the apical (A) to the basolateral (B) side of the cells (P app,A-B) is compared with the permeation in the opposite direction (P app,B-A).

MDR1 mRNA = MDR1 mRNA expression in Caco-2 cells (qRT-PCR); assay type: cell-based; settings: 48 h pretreatment, bosentan 20 μM, GA 50 μM, PCA 50 μM, PCE 100 mg/ml
Description: (§1) After the incubation period, cells were harvested from the Transwell inserts for RNA extraction. […] Real-time quantitative PCR (qRT-PCR) was performed on an ABI Prism 7900HT Sequence Detection System (Applied Biosystems, Foster City, CA, United States) for the analysis of MDR1 and BCRP genes. Primers of housekeeping gene β-actin was used as internal controls. […] The relative gene expression levels were determined using the comparative CT method (ΔΔCT method). The cut-off CT was set at 35 cycles for all analyses. An arbitrary classification system was assigned to the data, designating relative expression levels >2 as high mRNA expression, levels between 2 and 1 as moderate mRNA expression, levels between 1 and 0.1 as low mRNA expression and levels <0.1 as unexpressed.

BCRP mRNA = BCRP mRNA expression in Caco-2 cells (qRT-PCR); assay type: cell-based; settings: 48 h pretreatment, bosentan 20 μM, GA 50 μM, PCA 50 μM, PCE 100 mg/ml
Description: as §1

[1] = plasma PK-marker, human subjects
[2] = plasma PK-marker, rats
[3] = tested on: Staphylococcus aureus and Escherichia coli; set-up: method as in Fifere et al., 2022; settings: in vitro, especially that of levofloxacin; ref Fifere et al., 2022; cited from earlier work
in vivo = settings: male, Sprague-Dawley, rat, plasma, po, 0.72 g/kg, rats; for AUC(0-t) / AUC(0-inf) / Cmax / Vd/F / k el / Tmax: plasma PK-marker; for Cmax: C max; for Vd/F: V z/F; for k el: k e; for half-life: t 1/2, plasma PK-marker; for Tmax: t max, median (range)
clinical = settings: male, human, plasma; for AUC(0-t) / AUC(0-inf) / Cmax / Vd/F / k el: plasma PK-marker; for AUC(0-t) / AUC(0-inf) / Cmax / Vd/F / k el / half-life: human subjects; for Cmax: C max; for Vd/F: V z/F; for k el: k e; for half-life: t 1/2, plasma PK-marker
[4] = oral single dose of PCE (8 g) alone
[5] = intragastric PCE 0.72 g/kg + CIP […]
[6] = intragastric PCE 0.72 g/kg alone
[7] = oral, multiple doses of PCE (8 g, TID, seven days) + CIP 0.5 g
[8] = oral, single dose of PCE (8 g) + CIP 0.5 g
[9] = po, oral single dose of PCE (8 g) alone

SMILES: O=C(O)c1ccc(O)c(O)c1 [PCA, protocatechuic acid]
- IC50 (hOCT2): 107 µM
- change of net efflux ratio of CIP after co-treatment (Caco-2 cells): significant improvement
- increase of MDR1 (P-gp) mRNA expression (MDR1 mRNA): 3.56 fold
- increase of BCRP mRNA expression (BCRP mRNA): 3.33 fold
- CL/F ([1]; multiple doses of PCE (8 g, TID, seven days) + CIP 0.5 g): 5.78 ± 1.57 L/h
- C max [1, 4]: 6.07 ± 1.48 ng/mL
- CL/F [1, 4]: 5.64 ± 1.45 L/h
- CL/F ([1]; single dose of PCE (8 g) + CIP 0.5 g): 4.26 ± 0.91 L/h
- CL/F [2, 5]: 6.67 ± 1.54 L/h
- CL/F [2, 6]: 6.72 ± 2.19 L/h
- increase of the antibacterial activity [3]: up to 50%
- AUC(0-t) (in vivo; [5]): 6.37 ± 1.18 ng·h/mL
- AUC(0-t) (in vivo; [6]): 6.72 ± 2.39 ng·h/mL
- AUC(0-inf) (in vivo; [5]): 7.04 ± 1.55 ng·h/mL
- AUC(0-inf) (in vivo; [6]): 7.32 ± 2.39 ng·h/mL
- Cmax (in vivo; [5]): 6.69 ± 1.87 ng/mL
- Cmax (in vivo; [6]): 5.08 ± 1.82 ng/mL
- Vd/F (in vivo; [5]): 6.87 ± 2.54 L
- Vd/F (in vivo; [6]): 6.5 ± 3.16 L
- k el (in vivo; [5]): 0.000306 s⁻¹
- k el (in vivo; [6]): 0.000308 s⁻¹
- half-life (in vivo; [5]): 45.6 ± 25.8 min
- half-life (in vivo; [6]): 40.8 ± 12.6 min
- Tmax (in vivo; [5]): 30 min
- Tmax (in vivo; [6]): 30 min
- AUC(0-t) (clinical; [7]): 3.03 ± 0.9 ng·h/mL
- AUC(0-t) (clinical; [8]): 3.68 ± 1.15 ng·h/mL
- AUC(0-inf) (clinical; [7]): 3.35 ± 0.99 ng·h/mL
- AUC(0-inf) (clinical; [8]): 4.4 ± 0.93 ng·h/mL
- Cmax (clinical; [7]): 5.88 ± 1.66 ng/mL
- Cmax (clinical; [8]): 6.44 ± 2.57 ng/mL
- Vd/F (clinical; [7]): 150 ± 54.4 L
- Vd/F (clinical; [8]): 149 ± 65.6 L
- k el (clinical; [7]): 0.000697 s⁻¹
- k el (clinical; [8]): 0.000569 s⁻¹
- half-life (clinical; [7]): 18.6 ± 8.4 min
- half-life (clinical; [8]): 25.2 ± 11.4 min
- Tmax (clinical; po): 19.8 min
- AUC(0-t) (clinical; [9]): 2.84 ± 0.72 ng·h/mL
- AUC(0-inf) (clinical; [9]): 3.39 ± 0.94 ng·h/mL
- Vd/F (clinical; [9]): 148 ± 23.9 L
- k el (clinical; [9]): 0.000656 s⁻¹
- half-life (clinical; [9]): 19.2 ± 6.6 min
